What was measured:
[1] = Liquid, Closed cell (Static) method
[2] = molar heat capacity at constant pressure; conditions: 101 kPa, Power-Compensation Calorimetry
[3] = wn = mass fraction of the nth substance listed; conditions: 101 kPa, Liquid, Capillary tube (Ostwald / Ubbelohde) method, w1 = 0.9

O [water]
[1]
Conditions	vapor or sublimation pressure [kPa]
274.15 K	0.671
276.15 K	0.778
279.15 K	0.956
282.15 K	1.171
285.15 K	1.428
288.15 K	1.739
291.15 K	2.103
294.15 K	2.525
297.15 K	3.035
300.15 K	3.62
303.15 K	4.299
304.45 K	4.659
306.15 K	5.104
308.55 K	5.85
313.45 K	7.631
318.15 K	9.698
323.45 K	12.68
328.65 K	16.35
333.15 K	20.22
337.45 K	24.61
345.65 K	35.27
353.85 K	49.37
364.35 K	74.26
372.15 K	99.51

CCCCn1cc[n+](C)c1.[Br-] [1-butyl-3-methylimidazolium bromide]
molar heat capacity at constant pressure [J/K/mol], [2]
Conditions	283.15 K	293.15 K	303.15 K	313.15 K	323.15 K	333.15 K	343.15 K	353.15 K	363.15 K	373.15 K
Crystal	265.14	269.52	276.09	289.24	308.96	361.55	705.57	–	–	–
Liquid	–	–	–	–	–	–	–	352.79	359.36	363.74

CCCCn1cc[n+](C)c1.[Br-] [1-butyl-3-methylimidazolium bromide] + O
[3]
Conditions	kinematic viscosity [m2/s]
313.15 K	2.21e-05
323.15 K	1.56e-05
333.15 K	1.14e-05
343.15 K	8.58e-06
353.15 K	6.65e-06
363.15 K	5.34e-06
373.15 K	4.34e-06
